Measurements: patent publication US5859025A, “Fluoroalkyl- and fluoroalkoxy-substituted heterocyclic bradykinin antagonists, process for their preparation, and their use” (Hoechst Aktiengesellschaft, priority 1996, dated 1999)

Key:
[1] = system: bradykinin contraction of the isolated rabbit jugular vein; assay: in-vitro duration of action on the isolated rabbit jugular (bradykinin-induced contraction); type: cell-based, rabbit (white New Zealand); details: for inhibition at 10 µM: Oryctolagus cuniculus, 0.25 h, time 15 min, test substance (10^-5 M) present in bath, bradykinin 10^-7 M; for inhibition at 10 µM / Inhibition of the bradykinin contraction in %: mean, n=6; for Inhibition of the bradykinin contraction in %: after rinsing (test substance 10^-5 M no longer in bath); for inhibition after 4 h (in words): test substance 10^-5 M
Description: The compounds of Examples 1, X and Y were compared. Examples X and Y are described in EP-A 622 361.
Comparison of the in-vitro duration of action of heterocyclic bradykinin antagonists on the isolated rabbit jugular
Male rabbits (white New Zealand, breeder: Mollegaard, Denmark, 2.5-3.0 kg) are killed by injection of an overdose of Pentobarbital-Na (1 ml of Narcoren®+0.5 ml of heparin). The two jugular veins are exposed, cut spirally and pieces of about 1.5 cm length are suspended in buffered organ baths (Krebs-Henseleit buffer) at a pretension of 0.5 g.
After a rest period of 30 min, contractions are induced by addition of bradykinin (10^-7 M), which serve as the starting value. Test substances are then added at a concentration of 10^-5 M. The inhibitory values shown are mean values (n=6). […] The bradykinin contraction is then ended by rinsing with just buffer solution.
At each further time shown, stimulation was again carried out with bradykinin (in the absence of the test substance in the bath fluid) and at the end of the contraction the bath fluid was replaced by just buffer solution.

bradykinin B2 receptor = target: T1, bradykinin B2 receptor (Cavia porcellus, UniProt O70526); assay: binding to the bradykinin B2 receptor of the guinea-pig ileum (3H-bradykinin competition); details: 3H-bradykinin 0.25 to 0.3 nmol/l, guinea-pig ileum membranes; for Ki: LIGAND program; for IC50: room temperature, 60 minutes
T1 construct: The guinea-pig ilea are roughly freed of the intestinal contents by careful stripping; from tissue; host or cells: guinea-pig ileum, membrane preparation
T1 sequence (O70526 1-372): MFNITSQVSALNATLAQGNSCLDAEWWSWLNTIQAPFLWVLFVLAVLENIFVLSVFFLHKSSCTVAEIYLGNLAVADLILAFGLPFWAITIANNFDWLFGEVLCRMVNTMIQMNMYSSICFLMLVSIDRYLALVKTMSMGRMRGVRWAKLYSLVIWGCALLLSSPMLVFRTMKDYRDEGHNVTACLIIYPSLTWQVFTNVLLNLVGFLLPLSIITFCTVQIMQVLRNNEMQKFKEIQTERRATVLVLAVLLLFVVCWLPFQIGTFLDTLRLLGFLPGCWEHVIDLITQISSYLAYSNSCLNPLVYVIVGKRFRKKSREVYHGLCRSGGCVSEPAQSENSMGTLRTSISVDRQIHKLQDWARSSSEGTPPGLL
Description: The measurement of the binding to the bradykinin B2 receptor of the guinea-pig ileum is described in the following (R. B. Innis et al., Proc. Natl. Acad. Sci. USA; 17 (1981) 2630): […]
25 mM TES (SIGMA, Order No: T-4152)
1 mM 1,10-phenanthroline (SIGMA; Order No: P-9375)
25 mM TES (SIGMA; Order No.: T-4152)
1 mM 1,10-phenanthroline (SIGMA; Order No.: P-9375)
0,1% albumin, bovine (SIGMA; Order No.: A-7906)
140 mg/ml bacitracin (SIGMA; Order No.: B-0125)
1 mM dithiothreitol (SIGMA; Order No.: D-0632)
1 mM captopril® 1-[(2S)-3-mercapto-2-methylpropionyl]-L-proline
Both buffers are adjusted to pH 6.8 using 5 molar NaOH.
The guinea-pig ilea are roughly freed of the intestinal contents by careful stripping and cleaned in 0.9% strength NaCl solution. The pieces of ilea, which are about 2 cm long, are transferred to ice-cold TES buffer (about 1 g/10 ml) and homogenized in an ice-bath for 30 sec. using an Ultraturrax. The homogenate is then filtered through 3 layers of gauze and the filtrate is centrifuged at 50,000 g for 10 minutes. The supernatant is discarded, and the pellet is rehomogenized in the same volume of TES buffer and centrifuged again at 50,000 g for 10 minutes. The pellet is rehomogenized in incubation buffer (about 1 g/5 ml) and frozen at -70° C. in cryotubes, divided into 2 ml portions.
The protein concentration of the ready-to-use membrane suspension is determined according to LOWRY and should be about 15 mg/100 ml.
All incubations are carried out at room temperature for 60 minutes on microtiter plates (96×300 ml) in 200 ml volumes. All mixtures in incubation buffer. To this end, 50 ml of the radioligand, 50 ml of the preparation to be tested and 100 ml of the membrane suspension are pipetted successively into the depressions of the microtiter plate. […]
a) Saturation Experiments (hot saturation)
Preparation of the ^3 H-bradykinin solution: For the saturation experiments, the concentrations 0.05, 0.1, 0.2, 0.4, 0.6, 0.8, 1.0, 1.5, 2.0, 2.5 and 3.0 nmol/l are employed, which correspond to 0.05 to 3.0 pmol/ml. After the preparation of the corresponding dilutions, 50 ml each per sample are initially introduced.
Nonspecific binding: For each concentration of the radioactive ligand, the nonspecific binding must be determined. This can be achieved by addition of a high concentration (1-100 mmol) of the unlabeled ligand, other antagonists or agonists of the bradykinin receptor. […] For this, 1.862 mg are dissolved in 1 ml of dimethyl sulfoxide (DMSO), diluted 1:25 with incubation buffer and 50 ml of this solution are added to the samples in the microtiter plates. The reaction is started by the addition of […] of the membrane suspension. […]
b) Competition Experiments (IC50)
Here a fixed quantity of the radioactive ligand (0.25 to 0.3 nmol/l of ^3 H-bradykinin) and various concentrations of the unlabeled agonists or antagonists are employed. 50 ml of the preparations or standards to be tested in the concentrations 10^-5 to 10^-10 mol/l are added to in each case 50 ml of the ^3 H-bradykinin solution and the reaction is started by addition of […] of membrane suspension. In this test too, triplicate determinations are carried out and three samples are incubated with […] of HOE 140 to determine the nonspecific binding.
The preparations to be tested for competition are always dissolved at a concentration of 1 mmol/l in dimethyl sulfoxide (DMSO), and then further diluted with DMSO. This solution is then diluted 1:25 with incubation buffer.
After incubation, the samples are filtered off in a Skatron cell harvester through a Whatmann GF/B filter previously moistened with 0.1% PEI (polyethylenimine) and washed with 10 ml of ice-cold TES buffer per sample. The still moist filters are punched out into mini-scintillation tubes and the tubes are filled with 3 ml of scintillator. After about 12 hours soaking time, the samples are briefly shaken and measured in a beta counter. […]

[2] = system: bradykinin-induced contraction of the guinea-pig ileum; assay: antagonist action on the bradykinin-induced contraction of the guinea-pig ileum; type: cell-based; details: Cavia porcellus, 10 min; isolated guinea-pig ileum, bradykinin 4×10^-8 mol/l, time of action 10 min, 37° C.
Description: The determinations of the antagonist action on the bradykinin-induced contraction of the guinea-pig ileum were carried out according to the following protocol:
Guinea-pigs weighing about 300 g (Morioth strain,--) are killed by a blow to the neck and exsanguinated. The ileum is dissected out in a length of about 20 cm, rinsed with Tyrode solution (Record syringe) and thus freed of intestinal contents. It is then divided into sections 1.5 cm long. These are fixed in organ baths of capacity 10 ml, which are filled with Tyrode solution, and connected to extension-measuring strips (isometric contraction measurement). The preload is 1 g. The Tyrode solution is warmed to 37° C. in a water bath and bubbled through with compressed air. After an interval of 30 min. the experiment is begun. After recording the biological zero line, bradykinin at a final concentration of 4×10^-8 mol/l per organ bath is added and the […] is recorded. The organ bath is then rinsed for 3 min with Tyrode solution and, after a break of 20 min., bradykinin is added again. The maximum of the contraction is achieved (control). Rinse again, break. The bradykinin antagonist is then added (time of action 10 min). Bradykinin is then added again and the ensuing contraction is compared with that of the control. The experiment is recorded on a pen recorder. […]
______________________________________ […]

| SMILES | inhibition at 10 µM [1] | Inhibition of the bradykinin contraction in % ([1]; time 210 min) | Inhibition of the bradykinin contraction in % ([1]; time 240 min) | Ki (bradykinin B2 receptor) | IC50 (bradykinin B2 receptor) | further results |
| --- | --- | --- | --- | --- | --- | --- |
| Cc1ccc2cccc(OCc3c(Cl)ccc(N(C)C(=O)CNC(=O)/C=C/c4ccc(C(F)(F)F)cc4)c3Cl)c2n1 [Example 1, 8-[3-(N-(4-trans-Trifluoromethylcinnamoylglycyl)-N-methylamino)-2,6-dichlorobenzyloxy]-2-methylquinoline] | 98% | 95% | 92% | 1 nM | 9 nM | in-vitro duration of action (in words) ([1]; isolated rabbit jugular, compared with Examples Y and X): distinctly longer in-vitro duration of action; Inhibition of the bradykinin contraction in % ([1]; time 30 min, bradykinin): 99%; Inhibition of the bradykinin contraction in % ([1]; time 60 min): 99%; Inhibition of the bradykinin contraction in % ([1]; time 270 min): 87%; Inhibition of the bradykinin contraction in % ([1]; time 300 min): 78%; Inhibition of the bradykinin contraction in % ([1]; time 330 min): 71%; Inhibition of the bradykinin contraction in % ([1]; time 360 min (6 h)): 68%; IC50 [2]: 44 nM |
| Cc1ccc2c(C)ccc(OCc3c(Cl)ccc(N(C)C(=O)CNC(=O)/C=C/c4ccc(C(F)(F)F)cc4)c3Cl)c2n1 [Example 2] |  |  |  | 4 nM | 40 nM | IC50 [2]: 1500 nM |
| Cc1ccc2cccc(OCc3c(Cl)ccc(N(C)C(=O)CNC(=O)Cc4ccc(C(F)(F)F)cc4)c3Cl)c2n1 [Example 8] |  |  |  | 3.4 nM | 28 nM |  |
| Cc1ccc2cccc(OCc3c(Cl)ccc(N(C)C(=O)CNC(=O)OCc4ccc(OC(F)(F)F)cc4)c3Cl)c2n1 [Example 22] |  |  |  | 10 nM | 95 nM |  |
| Cc1ccc2cccc(OCc3c(Cl)ccc(N(C)C(=O)CNC(=S)Nc4cccc(C(F)(F)F)c4)c3Cl)c2n1 [Example 29, 8-[3-N-(3-Trifluoromethylphenylthioureidoacetyl-N-methylamino)-2,6-dichlorobenzyloxy]-2-methylquinoline] |  |  |  | 5.1 nM | 38 nM |  |
| Cc1ccc(/C=C/C(=O)NCC(=O)N(C)c2ccc(Cl)c(COc3cccc4ccc(C)nc34)c2Cl)cc1 [Example X] | 97% | 58% | 30% |  |  | inhibition after 4 h (in words) [1]: no longer show any inhibition; Inhibition of the bradykinin contraction in % ([1]; time 120 min): 95%; Inhibition of the bradykinin contraction in % ([1]; time 150 min): 87%; Inhibition of the bradykinin contraction in % ([1]; time 180 min): 74% |
| COc1cccc(/C=C/C(=O)NCC(=O)N(C)c2ccc(Cl)c(COc3cccc4ccc(C)nc34)c2Cl)c1 [Example Y] | 96% | 59% | 31% |  |  | inhibition after 4 h (in words) [1]: no longer show any inhibition; Inhibition of the bradykinin contraction in % ([1]; time 30 min, bradykinin): 97%; Inhibition of the bradykinin contraction in % ([1]; time 180 min): 84%; Inhibition of the bradykinin contraction in % ([1]; time 270 min): 3% |
